Experimental data taken from the supplement of paper PMC11208160.

Test: recombinant UMI read abundance after kanamycin selection (control-corrected) (log10(CPM+1)); higher = more efficient recombination; extreme values may be limits of the assay; sequences stand for … in AGTGCAGAGAAAATCGGCCAGTTTTCTCTGCCTGCAGTCCGCATGCCGTGGGACCCCTTGGGTTCTAACCTGTTGCCTAGATTTATGCAGCGGACTGCCTTTCTCCCAAAGTGATAAACCGG…AGGTTGGTTTCACT; site = the 11-nt donor
Procedure, shortened: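 The measure is log10(CPM+1) for recombinant UMIs. These were PCR-amplified across the donor–target junction and sequenced after Escherichia coli carrying a donor and donor-binding-loop pair library and a target plasmid with T7-inducible IS621 bridge recombinase was plated on IPTG (0.07 mM) plus kanamycin or unselected. CPM were averaged over two replicates and scaled by control-derived factors.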
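Also: IS621 bridge recombinase in Escherichia coli cells against a fixed T5 target plasmid.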

Sequence | recombinant UMI read abundance (log10)
CTACTAGCATGGACCGGTTTTCCCGGTAATCCGTATTTGAC (site CTACTAGCTGT) | 2.64
CTACTAGCATGGACCGGTTTTCCCGGTAATCCGTATTTGAC (site CTAGTATCTGT) | 0
CTACTATCATGGACCGGTTTTCCCGGTAATCCGTATTTGAA (site CTACTATCTTT) | 2.45
CTACTATCATGGACCGGTTTTCCCGGTAATCCGTATTTGAA (site CTAGTATCTGT) | 0
CTACTCACATGGACCGGTTTTCCCGGTAATCCGTATTTGGA (site CTACTAACTTC) | 0.63
CTACTCACATGGACCGGTTTTCCCGGTAATCCGTATTTGGA (site CTACTCACTTC) | 2.16
CTACTCACATGGACCGGTTTTCCCGGTAATCCGTATTTGGA (site CTACTGACTTC) | 0.0219
CTACTCACATGGACCGGTTTTCCCGGTAATCCGTATTTGGA (site CTACTTACTTC) | 0.361
CTAGAAACATGGACCGGTTTTCCCGGTAATCCGTATTTGAC (site CTAGAAACTGT) | 2.76
CTAGAAACATGGACCGGTTTTCCCGGTAATCCGTATTTGAC (site CTAGTATCTGT) | 0.00659
CTAGAAACATGGACCGGTTTTCCCGGTAATCCGTATTTGCA (site CTAGAAACTTG) | 2.59
CTAGAAACATGGACCGGTTTTCCCGGTAATCCGTATTTGCA (site CTCGAAACTTG) | 0
CTAGAAACATGGACCGGTTTTCCCGGTAATCCGTATTTGCA (site CTGGAAACTTG) | 1.83
CTAGAAACATGGACCGGTTTTCCCGGTAATCCGTATTTGCA (site CTTGAAACTTG) | 0.422
CTAGAATCATGGACCGGTTTTCCCGGTAATCCGTATTTGAG (site CTAGAATCTCT) | 3.11
CTAGAATCATGGACCGGTTTTCCCGGTAATCCGTATTTGAG (site CTAGTATCTGT) | 0
CTAGACCCATGGACCGGTTTTCCCGGTAATCCGTATTTGGA (site CTAGACCCTTC) | 0.351
CTAGATTCATGGACCGGTTTTCCCGGTAATCCGTATTTGGA (site CTAGATTCTTC) | 2.84
CTAGCATCATGGACCGGTTTTCCCGGTAATCCGTATTTGCC (site CTAGCATCTGG) | 2.4
CTAGCATCATGGACCGGTTTTCCCGGTAATCCGTATTTGCC (site CTAGTATCTGT) | 0
CTAGCCACATGGACCGGTTTTCCCGGTAATCCGTATTTGGA (site GACCAATCTAA) | 0
CTAGCTGCATGGACCGGTTTTCCCGGTAATCCGTATTTGTG (site ATAGCTGCTCA) | 0.0231
CTAGCTGCATGGACCGGTTTTCCCGGTAATCCGTATTTGTG (site CTAGCTGCTCA) | 1.75

Sequence | recombinant UMI read abundance (log10)
CTAGCTGCATGGACCGGTTTTCCCGGTAATCCGTATTTGTG (site GTAGCTGCTCA) | 0.0102
CTAGCTGCATGGACCGGTTTTCCCGGTAATCCGTATTTGTG (site TTAGCTGCTCA) | 0.0211
CTAGCTTCATGGACCGGTTTTCCCGGTAATCCGTATTTGTG (site CTAGCTTCTCA) | 2.19
CTAGGTGCATGGACCGGTTTTCCCGGTAATCCGTATTTGAT (site CAAGGTGCTAT) | 1.59
CTAGGTGCATGGACCGGTTTTCCCGGTAATCCGTATTTGAT (site CCAGGTGCTAT) | 1.39
CTAGGTGCATGGACCGGTTTTCCCGGTAATCCGTATTTGAT (site CGAGGTGCTAT) | 0.0806
CTAGGTGCATGGACCGGTTTTCCCGGTAATCCGTATTTGAT (site CTAGGTGCTAT) | 2.14
CTAGTAACATGGACCGGTTTTCCCGGTAATCCGTATTTGAC (site CTAGTAACTGT) | 3.1
CTAGTAACATGGACCGGTTTTCCCGGTAATCCGTATTTGAC (site CTAGTACCTGT) | 0
CTAGTAACATGGACCGGTTTTCCCGGTAATCCGTATTTGAC (site CTAGTAGCTGT) | 2.73
CTAGTAACATGGACCGGTTTTCCCGGTAATCCGTATTTGAC (site CTAGTATCTGT) | 1.83
CTAGTCACATGGACCGGTTTTCCCGGTAATCCGTATTTGAC (site CTAGTATCTGT) | 0
CTAGTCACATGGACCGGTTTTCCCGGTAATCCGTATTTGAC (site CTAGTCACTGT) | 2.59
CTAGTTTCATGGACCGGTTTTCCCGGTAATCCGTATTTGAA (site CTAGTATCTGT) | 0
CTAGTTTCATGGACCGGTTTTCCCGGTAATCCGTATTTGAA (site CTAGTTTCTTT) | 1.85
CTAGTTTCATGGACCGGTTTTCCCGGTAATCCGTATTTGCC (site CTAGTATCTGT) | 0
CTAGTTTCATGGACCGGTTTTCCCGGTAATCCGTATTTGCC (site CTAGTTTCTGG) | 2.53
CTATAATCATGGACCGGTTTTCCCGGTAATCCGTATTTGCT (site CGATCATCTAG) | 0
CTATAATCATGGACCGGTTTTCCCGGTAATCCGTATTTGCT (site CTATAATCTAG) | 3.13
CTATATCCATGGACCGGTTTTCCCGGTAATCCGTATTTGAG (site CTATATCCTCT) | 1.41
CTATCCTCATGGACCGGTTTTCCCGGTAATCCGTATTTGCT (site CGATCATCTAG) | 0
CTATCCTCATGGACCGGTTTTCCCGGTAATCCGTATTTGCT (site CTATCCTCTAG) | 3.09
CTATCCTCATGGACCGGTTTTCCCGGTAATCCGTATTTGTT (site CTATCCTCTAA) | 2.79

Sequence | recombinant UMI read abundance (log10)
CTATTAACATGGACCGGTTTTCCCGGTAATCCGTATTTGGA (site CTAATAACTTC) | 0.484
CTATTAACATGGACCGGTTTTCCCGGTAATCCGTATTTGGA (site CTACTAACTTC) | 0.342
CTATTAACATGGACCGGTTTTCCCGGTAATCCGTATTTGGA (site CTAGTAACTTC) | 0.397
CTATTAACATGGACCGGTTTTCCCGGTAATCCGTATTTGGA (site CTATTAACTTC) | 1.64
CTATTGGCATGGACCGGTTTTCCCGGTAATCCGTATTTGTA (site CTATTGGCTTA) | 1.84
CTATTGTCATGGACCGGTTTTCCCGGTAATCCGTATTTGAC (site CTAGTATCTGT) | 0
CTATTGTCATGGACCGGTTTTCCCGGTAATCCGTATTTGAC (site CTATTGTCTGT) | 0
CTCAAAGCATGGACCGGTTTTCCCGGTAATCCGTATTTGCG (site CTCAAAGCTCG) | 0.762
CTCAGCCCATGGACCGGTTTTCCCGGTAATCCGTATTTGCC (site CTCAGCCCTGG) | 0
CTCAGCTCATGGACCGGTTTTCCCGGTAATCCGTATTTGAA (site CTCAGCTCTTT) | 2.08
CTCATTCCATGGACCGGTTTTCCCGGTAATCCGTATTTGCT (site CTCATTCCTAG) | 0.523
CTCCAAACATGGACCGGTTTTCCCGGTAATCCGTATTTGGC (site CTCCAAACTGC) | 0
CTCCAACCATGGACCGGTTTTCCCGGTAATCCGTATTTGCC (site CTCCAACCTGG) | 0
CTCCATGCATGGACCGGTTTTCCCGGTAATCCGTATTTGTC (site CTCCATGCTGA) | 2.3
CTCCCGACATGGACCGGTTTTCCCGGTAATCCGTATTTGAG (site CTCCCAACTCT) | 0.849
CTCCCGACATGGACCGGTTTTCCCGGTAATCCGTATTTGAG (site CTCCCCACTCT) | 0.00318
CTCCCGACATGGACCGGTTTTCCCGGTAATCCGTATTTGAG (site CTCCCGACTCT) | 0.968
CTCCCGACATGGACCGGTTTTCCCGGTAATCCGTATTTGAG (site CTCCCTACTCT) | 0.0167
CTCCCTACATGGACCGGTTTTCCCGGTAATCCGTATTTGAT (site CTCCCTACTAT) | 1.01
CTCCCTACATGGACCGGTTTTCCCGGTAATCCGTATTTGAT (site CTCCCTACTCT) | 0.00726
CTCCCTACATGGACCGGTTTTCCCGGTAATCCGTATTTGAT (site CTCCCTACTGT) | 0.137
CTCCCTACATGGACCGGTTTTCCCGGTAATCCGTATTTGAT (site CTCCCTACTTT) | 0.0164
